Test results published in ChEMBL document CHEMBL1139127, “Structural modifications of (1S,3S)-3-amino-4-difluoromethylenecyclopentanecarboxylic acid, a potent irreversible inhibitor of GABA aminotransferase” (Bioorg Med Chem Lett, 2007).
Calls of active or inactive are those of the source. The calls are words filed in the database; no cut-off is given here.

What was measured:
[1] = molecular target: 4-aminobutyrate aminotransferase, mitochondrial (Homo sapiens) (UniProt P80404); experiment: Inhibition of GABA-AT at 1.7 mM
Chain of 4-aminobutyrate aminotransferase, mitochondrial (Homo sapiens) (P80404 whole entry): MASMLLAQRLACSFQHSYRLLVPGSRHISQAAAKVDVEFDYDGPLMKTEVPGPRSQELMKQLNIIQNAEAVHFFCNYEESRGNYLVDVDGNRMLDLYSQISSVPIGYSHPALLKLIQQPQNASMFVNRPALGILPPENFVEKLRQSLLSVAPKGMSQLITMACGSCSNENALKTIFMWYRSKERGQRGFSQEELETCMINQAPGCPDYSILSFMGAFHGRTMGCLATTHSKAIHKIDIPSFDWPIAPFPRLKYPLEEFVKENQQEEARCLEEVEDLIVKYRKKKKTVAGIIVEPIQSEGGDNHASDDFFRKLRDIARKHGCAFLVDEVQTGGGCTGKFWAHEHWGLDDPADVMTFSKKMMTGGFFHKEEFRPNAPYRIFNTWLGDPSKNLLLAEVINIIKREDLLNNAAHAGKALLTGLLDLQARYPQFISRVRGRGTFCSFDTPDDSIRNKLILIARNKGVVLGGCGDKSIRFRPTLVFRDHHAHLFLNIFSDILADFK

[2] = molecular target: 4-aminobutyrate aminotransferase, mitochondrial (Homo sapiens) (UniProt P80404); experiment: Inhibition of GABA-AT at 10 mM assessed as residual activity

Activity [1]: inactive
Activity [2]: 58%
Structure (SMILES): N[C@H]1C[C@@H](C(=O)O)CC1=C(Cl)Cl
